Measured values from patent US20230278972A1, “SUBSTITUTED HALOALKYL SULFONANILIDE HERBICIDES” (FMC Corporation, priority 2020, published 2023).

Tests used:
Assay type in all cases: in vivo
[1] = tested on: barnyardgrass (Echinochloa crus-galli); assay: Test A preemergence, barnyardgrass; settings: Preemergence; for Barnyardgrass plant response rating: 125 g ai/ha, visual injury on 0 to 100 scale (0 no effect, 100 complete control), approximately 10 days; for Plant response rating, Barnyardgrass: 500 g ai/ha, 0 to 100 scale (0 no effect, 100 complete control)
How it was run: (§1)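 Test chemicals, formulated in a non-phytotoxic solvent mixture with surfactant, were sprayed postemergence on plants 2 to 10 cm tall at the one- to two-leaf stage. Preemergence treatment was a directed soil spray onto freshly seeded pots. Both used a loam soil and sand blend.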

[2] = tested on: wheat (Triticum aestivum); assay: Test A postemergence, wheat; settings: Postemergence, 0 to 100 scale (0 no effect, 100 complete control); for Plant response rating, Wheat: 125 g ai/ha, visual injury approx. 10 days; for Wheat plant response rating: 500 g ai/ha, visual injury vs untreated controls after approx. 10 days
How it was run: (§2)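 Formulated with a surfactant in a non-phytotoxic solvent, compounds are applied to loam–sand pots, either to bare soil immediately after seeding (preemergence) or to seedlings of 2 to 10 cm bearing one to two leaves (postemergence).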

[3] = tested on: kochia (Bassia scoparia); assay: Test A postemergence, kochia; settings: Postemergence, 0 to 100 scale (0 no effect, 100 complete control); for Plant response rating, Kochia: 125 g ai/ha, visual injury approx. 10 days; for Kochia plant response rating: 500 g ai/ha, visual injury vs untreated controls after approx. 10 days
How it was run: as §1

[4] = tested on: blackgrass (Alopecurus myosuroides); assay: Test A postemergence, blackgrass; settings: Postemergence, 0 to 100 scale (0 no effect, 100 complete control); for Plant response rating, Blackgrass: 125 g ai/ha, visual injury approx. 10 days; for Blackgrass plant response rating: 500 g ai/ha, visual injury vs untreated controls after approx. 10 days
How it was run: as §1

[5] = tested on: Ryegrass, Italian (Italian ryegrass, Lolium multiflorum); assay: Test A postemergence, Ryegrass, Italian; settings: Postemergence, 0 to 100 scale (0 no effect, 100 complete control); for Plant response rating, Ryegrass, Italian: 125 g ai/ha, visual injury approx. 10 days; for Ryegrass, Italian plant response rating: 500 g ai/ha, visual injury vs untreated controls after approx. 10 days
How it was run: as §1

[6] = tested on: Foxtail, Giant (giant foxtail, Setaria faberi); assay: Test A preemergence, Foxtail, Giant; settings: Preemergence; for Foxtail, Giant plant response rating: 125 g ai/ha, visual injury on 0 to 100 scale (0 no effect, 100 complete control), approximately 10 days; for Plant response rating, Foxtail, Giant: 500 g ai/ha, 0 to 100 scale (0 no effect, 100 complete control)
How it was run: as §1

[7] = tested on: pigweed (Amaranthus retroflexus); assay: Test A postemergence, pigweed; settings: Postemergence, 0 to 100 scale (0 no effect, 100 complete control); for Plant response rating, Pigweed: 125 g ai/ha, visual injury approx. 10 days; for Pigweed plant response rating: 500 g ai/ha, visual injury vs untreated controls after approx. 10 days
How it was run: as §1

[8] = tested on: Ryegrass, Italian (Italian ryegrass, Lolium multiflorum); assay: Test A preemergence, Ryegrass, Italian; settings: Preemergence; for Ryegrass, Italian plant response rating: 125 g ai/ha, visual injury on 0 to 100 scale (0 no effect, 100 complete control), approximately 10 days; for Plant response rating, Ryegrass, Italian: 500 g ai/ha, 0 to 100 scale (0 no effect, 100 complete control)
How it was run: as §1

[9] = tested on: ragweed (common ragweed, Ambrosia artemisiifolia); assay: Test A postemergence, ragweed; settings: Postemergence, 0 to 100 scale (0 no effect, 100 complete control); for Plant response rating, Ragweed: 125 g ai/ha, visual injury approx. 10 days; for Ragweed plant response rating: 500 g ai/ha, visual injury vs untreated controls after approx. 10 days
How it was run: as §1

[10] = tested on: Foxtail, Giant (giant foxtail, Setaria faberi); assay: Test A postemergence, Foxtail, Giant; settings: Postemergence, 0 to 100 scale (0 no effect, 100 complete control); for Plant response rating, Foxtail, Giant: 125 g ai/ha, visual injury approx. 10 days; for Foxtail, Giant plant response rating: 500 g ai/ha, visual injury vs untreated controls after approx. 10 days
How it was run: as §1

[11] = tested on: ragweed (common ragweed, Ambrosia artemisiifolia); assay: Test A preemergence, ragweed; settings: Preemergence; for Ragweed plant response rating: 125 g ai/ha, visual injury on 0 to 100 scale (0 no effect, 100 complete control), approximately 10 days; for Plant response rating, Ragweed: 500 g ai/ha, 0 to 100 scale (0 no effect, 100 complete control)
How it was run: as §1

[12] = tested on: galium (catchweed bedstraw, Galium aparine); assay: Test A postemergence, galium; settings: Postemergence, 0 to 100 scale (0 no effect, 100 complete control); for Plant response rating, Galium: 125 g ai/ha, visual injury approx. 10 days; for Galium plant response rating: 500 g ai/ha, visual injury vs untreated controls after approx. 10 days
How it was run: as §2

[13] = tested on: corn (Zea mays); assay: Test A postemergence, corn; settings: Postemergence, 0 to 100 scale (0 no effect, 100 complete control); for Plant response rating, Corn: 125 g ai/ha, visual injury approx. 10 days; for Corn plant response rating: 500 g ai/ha, visual injury vs untreated controls after approx. 10 days
How it was run: as §1

[14] = tested on: kochia (Bassia scoparia); assay: Test A preemergence, kochia; settings: Preemergence; for Kochia plant response rating: 125 g ai/ha, visual injury on 0 to 100 scale (0 no effect, 100 complete control), approximately 10 days; for Plant response rating, Kochia: 500 g ai/ha, 0 to 100 scale (0 no effect, 100 complete control)
How it was run: as §1

[15] = tested on: pigweed (Amaranthus retroflexus); assay: Test A preemergence, pigweed; settings: for Pigweed plant response rating: 125 g ai/ha, visual injury on 0 to 100 scale (0 no effect, 100 complete control), approximately 10 days; for Plant response rating, Pigweed: 500 g ai/ha, 0 to 100 scale (0 no effect, 100 complete control)
How it was run: as §2

[16] = tested on: barnyardgrass (Echinochloa crus-galli); assay: Test A postemergence, barnyardgrass; settings: Postemergence, 0 to 100 scale (0 no effect, 100 complete control); for Plant response rating, Barnyardgrass: 125 g ai/ha, visual injury approx. 10 days; for Barnyardgrass plant response rating: 500 g ai/ha, visual injury vs untreated controls after approx. 10 days
How it was run: as §2

SMILES	Barnyardgrass plant response rating [1]	Plant response rating, Barnyardgrass [1]	Plant response rating, Wheat [2]	Wheat plant response rating [2]	Plant response rating, Kochia [3]	Kochia plant response rating [3]	Plant response rating, Blackgrass [4]	Blackgrass plant response rating [4]	Plant response rating, Ryegrass, Italian [5]	Ryegrass, Italian plant response rating [5]	Foxtail, Giant plant response rating [6]	Plant response rating, Foxtail, Giant [6]	Plant response rating, Pigweed [7]	Pigweed plant response rating [7]	Ryegrass, Italian plant response rating [8]	Plant response rating, Ryegrass, Italian [8]	Plant response rating, Ragweed [9]	Ragweed plant response rating [9]	Plant response rating, Foxtail, Giant [10]	Foxtail, Giant plant response rating [10]	other results
CCCn1nccc(-c2cc(NS(=O)(=O)C(F)(F)F)c(C)cc2C)c1=O [Compound 58]	100	100	20	70	0	20	0	30	0	60	100	100	0	0	70	100	0	20	30	90	Ragweed plant response rating [11]: 0; Plant response rating, Ragweed [11]: 0; Plant response rating, Galium [12]: 80; Galium plant response rating [12]: 90; Plant response rating, Corn [13]: 20; Corn plant response rating [13]: 50; Kochia plant response rating [14]: 0; Plant response rating, Kochia [14]: 80; Pigweed plant response rating [15]: 0; Plant response rating, Pigweed [15]: 50; Plant response rating, Barnyardgrass [16]: 20; Barnyardgrass plant response rating [16]: 90
Cc1ccc(-c2ccnn(C)c2=O)cc1NS(=O)(=O)C(F)(F)F [Compound 59]	0	90	0	40	50	70	0	70	0	60	20	70	0	60	0	60	20	60	10	70	Ragweed plant response rating [11]: 0; Plant response rating, Ragweed [11]: 30; Plant response rating, Galium [12]: 80; Galium plant response rating [12]: 90; Plant response rating, Corn [13]: 10; Corn plant response rating [13]: 40; Kochia plant response rating [14]: 40; Plant response rating, Kochia [14]: 90; Pigweed plant response rating [15]: 30; Plant response rating, Pigweed [15]: 60; Plant response rating, Barnyardgrass [16]: 0; Barnyardgrass plant response rating [16]: 80
COc1ccnn(-c2cc(NS(=O)(=O)C(F)(F)F)c(C)cc2C)c1=O [Compound 60]	90	90	50	70	40	80	40	70	70	80	80	90	80	90	80	90	50	70	60	90	Ragweed plant response rating [11]: 30; Plant response rating, Ragweed [11]: 70; Plant response rating, Galium [12]: 90; Galium plant response rating [12]: 90; Plant response rating, Corn [13]: 10; Corn plant response rating [13]: 60; Kochia plant response rating [14]: 90; Plant response rating, Kochia [14]: 90; Pigweed plant response rating [15]: 100; Plant response rating, Pigweed [15]: 100; Plant response rating, Barnyardgrass [16]: 70; Barnyardgrass plant response rating [16]: 70
Cc1cc(C)c(N(S(=O)(=O)C(F)(F)F)S(=O)(=O)C(F)(F)F)cc1-c1cc(C(F)(F)F)nn(C)c1=O [Compound 61]	100	100	40	70	40	60	0	30	40	80	100	100	20	80	70	100	0	30	0	70	Ragweed plant response rating [11]: 0; Plant response rating, Ragweed [11]: 0; Plant response rating, Galium [12]: 50; Galium plant response rating [12]: 60; Plant response rating, Corn [13]: 20; Corn plant response rating [13]: 10; Kochia plant response rating [14]: 50; Plant response rating, Kochia [14]: 90; Pigweed plant response rating [15]: 50; Plant response rating, Pigweed [15]: 80; Plant response rating, Barnyardgrass [16]: 20; Barnyardgrass plant response rating [16]: 80
Cc1cc(-c2cc(NS(=O)(=O)C(F)(F)F)c(C)cc2C)c(=O)n(C)n1 [Compound 62]	100	100	0	60	20	40	0	50	0	20	100	100	20	40	40	100	0	20	0	80	Ragweed plant response rating [11]: 20; Plant response rating, Ragweed [11]: 80; Plant response rating, Galium [12]: 70; Galium plant response rating [12]: 80; Plant response rating, Corn [13]: 0; Corn plant response rating [13]: 0; Kochia plant response rating [14]: 70; Plant response rating, Kochia [14]: 90; Pigweed plant response rating [15]: 50; Plant response rating, Pigweed [15]: 90; Plant response rating, Barnyardgrass [16]: 0; Barnyardgrass plant response rating [16]: 70
Cc1cc(F)c(-c2ccnn(C)c2=O)cc1NS(=O)(=O)C(F)(F)F [Compound 63]	70	90	0	80	70	90	0	40	30	70	90	100	30	80	90	100	10	60	70	90	Ragweed plant response rating [11]: 30; Plant response rating, Ragweed [11]: 80; Plant response rating, Galium [12]: 90; Galium plant response rating [12]: 90; Plant response rating, Corn [13]: 0; Corn plant response rating [13]: 50; Kochia plant response rating [14]: 40; Plant response rating, Kochia [14]: 90; Pigweed plant response rating [15]: 70; Plant response rating, Pigweed [15]: 90; Plant response rating, Barnyardgrass [16]: 10; Barnyardgrass plant response rating [16]: 90
COc1c(Cl)nn(C)c(=O)c1-c1cc(NS(=O)(=O)C(F)(F)F)c(C)cc1C [Compound 64]	50	90	40	60	20	60	0	30	40	80	90	90	20	30	70	100	0	0	0	60	Ragweed plant response rating [11]: 0; Plant response rating, Ragweed [11]: 40; Plant response rating, Galium [12]: 0; Galium plant response rating [12]: 30; Plant response rating, Corn [13]: 0; Corn plant response rating [13]: 0; Kochia plant response rating [14]: 40; Plant response rating, Kochia [14]: 90; Pigweed plant response rating [15]: 40; Plant response rating, Pigweed [15]: 50; Plant response rating, Barnyardgrass [16]: 20; Barnyardgrass plant response rating [16]: 20
